Results reported in US7214696B2, “Compositions and methods for stabilizing transthyretin and inhibiting transthyretin misfolding” (The Scripps Research Institute, priority 2002, dated 2007).
One block for each compound: values may come before it.

Assays:
[1] = target: T1, TTR in human blood plasma (Homo sapiens, UniProt P02766); assay: Plasma selectivity: antibody capture/HPLC binding stoichiometry, Example 2; conditions: 10.8 μM inhibitor in human plasma, 37° C., 24 h; post-wash lower limit; maximum 2 per TTR tetramer
WT TTR tetramer [2] = target: T2, WT TTR tetramer (Homo sapiens, UniProt P02766); assay: TTR tetramer dissociation kinetics by linked monomer unfolding in 6.5 M urea (far-UV CD), Example 2; conditions: 3.6 μM TTR, 3.6 or 7.2 μM inhibitor, 168 h time-course
WT TTR tetramer [3] = target: T2, WT TTR tetramer; assay: WT TTR tetramer dissociation rate in 6 M urea, Example 1; type: biochemical; conditions: TTR 1.8 μM
Experimental: Tetramer dissociation rates were measured by linking slow quaternary structural changes to the unfolding transition, with a rate of 5×10^5 times that of dissociation (Hammarström et al., Proc. Natl. Acad. Sci. U.S.A. 99, 16427 (2002)). Denaturation-detected dissociation is irreversible because the concentration of urea used (>6.0 M) cannot support refolding.

[4] = target: T1, TTR in human blood plasma; assay: Immunoprecipitation/HPLC binding stoichiometry of PCBs and OH-PCBs in plasma, Example 4; parameters: from tissue; host or cells: human blood plasma from healthy volunteers; conditions: post-wash lower limit; for Equivalents Bound: PCB 10.8 μM in human blood plasma, TTR ≈5 μM; for Equivalents Bound (Plasma): OH-PCB 10.8 μM in human blood plasma
TTR in whole blood = target: T3, TTR in whole blood (Homo sapiens, UniProt P02766); assay: Binding stoichiometry of OH-PCBs in whole blood, Example 4
T3 construct: Whole blood was drawn from healthy volunteers; from tissue; host or cells: human whole blood from healthy volunteers
From the text: Up to two PCBs can bind to the two identical thyroid hormone binding sites in a TTR tetramer. […] Several of the hydroxylated PCBs (e.g., 16 and 22) approach a binding stoichiometry of 2.

[5] = target: T1, TTR in human blood plasma; type: binding; parameters: from tissue; host or cells: human blood plasma from healthy volunteers; conditions: test compound 10.8 μM, 24 h, 37° C.
Experimental: Human blood plasma (TTR conc. 3.6–5.4 μM) was incubated for 24 h with the test compound (10.8 μM) at 37° C. The TTR and any bound inhibitor were immunoprecipitated using a sepharose-bound polyclonal TTR antibody. The TTR with or without inhibitor bound was liberated from the resin at high pH, and the inhibitor:TTR stoichiometry was ascertained by HPLC analysis (FIG. 8).

WT TTR = WT TTR (Homo sapiens, UniProt P02766); assay: Transthyretin amyloid fibril formation assay (pH 4.4, 72 h, OD 400 nm), Example 4; type: biochemical; conditions: equimolar inhibitor and TTR concentration (3.6 μM)
Experimental: TTR secreted into blood from the liver appears to be the source of systemic TTR amyloid. While it is not yet clear where or how amyloid is formed in humans, the typical denaturant in cells is acid, which is effective in converting nearly all amyloidogenic peptides and proteins into amyloid and/or related aggregates. […] Hydroxylated PCBs and PCB 3 were highly efficacious as TTR fibril inhibitors. At an inhibitor concentration equal to the WT TTR concentration (3.6 μM), only 12–50% of the normal amount of fibril formation was observed after a 72 h incubation period.
The compounds were dissolved in DMSO at a concentration of 720 μM. Five μL of a solution of the compound being evaluated was added to 0.5 mL of a 7.2 μM TTR solution in 10 mM phosphate pH 7.6, 100 mM KCl, 1 mM EDTA buffer, allowing the compound to incubate with TTR for 30 min. 495 μL of […] acetate pH 4.2, 100 mM KCl, 1 mM EDTA was added, to yield final protein and inhibitor concentrations of 3.6 μM each and a pH of 4.4. The mixture was then incubated at 37° C. for 72 h, after which the tubes were vortexed for 3 sec and the optical density was measured at 400 nm. The extent of fibril formation was determined by normalizing each optical density by that of TTR without inhibitor, defined to be 100% fibril formation. Control solutions of each compound in the absence of TTR were also tested and none absorbed appreciably at 400 nm.

Compound: OCc1ccc(-c2cc(Cl)cc(Cl)c2)cc1 [Compound 49, 3′,5′-Dichlorobiphenyl-4-yl-methanol]
Plasma Selectivity (equiv bound) [1]: 0.54 ± 0.10 equiv bound
effect on TTR tetramer dissociation in 6.5 M urea (WT TTR tetramer [2]): overall reduction in the extent of tetramer dissociation

Compound: O=C(O)c1cccc2oc(-c3ccccc3)nc12 [Compound 7]
protection of the tetramer from dissociation in 6 M urea by T·I and T·I2 (WT TTR tetramer [3]): prevented tetramer dissociation in 6 M urea
Equivalents Bound [4]: No Binding

Compound: Oc1cccc(-c2cc(F)cc(F)c2)c1 [Compound 8, 3′,5′-Difluorobiphenyl-3-ol]
Plasma Selectivity (equiv bound) [1]: 0.18 ± 0.05 equiv bound

Compound: O=C(O)c1cc(-c2ccc(Cl)cc2Cl)ccc1O [Compound 26, 2′,4′-Dichloro-4-hydroxybiphenyl-3-carboxylic acid]
Plasma Selectivity (equiv bound) [1]: 0.27 ± 0.02 equiv bound

Compound: O=C(O)c1ccc(-c2ccccc2F)cc1 [Compound 16, 2′-Fluorobiphenyl-4-carboxylic acid]
Plasma Selectivity (equiv bound) [1]: 0.08 ± 0.00 equiv bound
effect on TTR tetramer dissociation in 6.5 M urea (WT TTR tetramer [2]): affinity is insufficient to affect kinetic stabilization

Compound: OCc1ccccc1-c1cc(Cl)cc(Cl)c1 [Compound 50, 3′,5′-Dichlorobiphenyl-2-yl-methanol]
Plasma Selectivity (equiv bound) [1]: none observed

Compound: O=C(O)c1ccc2oc(-c3c(Cl)cccc3Cl)nc2c1 [Compound 13]
Equivalents Bound (Blood) (TTR in whole blood): 0.86
Equivalents Bound (Plasma) [4]: 0.84 ± 0.24
inhibitor:TTR binding stoichiometry in human blood plasma [5]: displayed the highest binding stoichiometries

Compound: O=C(O)c1cccc2oc(-c3cc(Cl)cc(Cl)c3)nc12 [Compound 5]
Equivalents Bound [4]: 0.06 ± 0.04

Compound: O=C(O)c1cc(-c2ccccc2)ccc1O [Compound 27, 4-Hydroxybiphenyl-3-carboxylic acid]
Plasma Selectivity (equiv bound) [1]: none observed

Compound: O=C(O)c1ccc2oc(-c3ccccc3)nc2c1 [Compound 14]
Equivalents Bound (Blood) (TTR in whole blood): 0.73
efficacy as fibril inhibitor (WT TTR): among the highest observed to date
Equivalents Bound (Plasma) [4]: 0.81 ± 0.29

Compound: O=C(O)c1cc(-c2cc(F)cc(F)c2)ccc1O [Compound 25, 3′,5′-Difluoro-4-hydroxybiphenyl-3-carboxylic acid]
Plasma Selectivity (equiv bound) [1]: none observed

Compound: O=C(O)c1ccc(-c2ccccc2)cc1 [Compound 22, Biphenyl-4-carboxylic acid]
Equivalents Bound (Blood) (TTR in whole blood): 1.69
Equivalents Bound (Plasma) [4]: 1.67 ± 0.40
Plasma Selectivity (equiv bound) [1]: 0.08 ± 0.01 equiv bound

Compound: 2′,6′-Difluorobiphenyl-3-carboxylic acid [Compound 19]
Equivalents Bound (Blood) (TTR in whole blood): 1.55
Equivalents Bound (Plasma) [4]: 1.48 ± 0.16

Compound: O=C(O)c1cc(-c2ccc(F)cc2)ccc1O [Compound 23, 4′-Fluoro-4-hydroxybiphenyl-3-carboxylic acid]
Plasma Selectivity (equiv bound) [1]: 0.09 ± 0.00 equiv bound

Compound: 2′-Fluorobiphenyl-3-carboxylic acid [Compound 15]
Equivalents Bound (Blood) (TTR in whole blood): 0.56
efficacy as fibril inhibitor (WT TTR): among the highest observed to date
Equivalents Bound (Plasma) [4]: 0.70 ± 0.17

Compound: O=C(O)c1cccc2oc(-c3c(Cl)cccc3Cl)nc12 [Compound 6]
protection of the tetramer from dissociation in 6 M urea by T·I and T·I2 (WT TTR tetramer [3]): prevented tetramer dissociation in 6 M urea
Equivalents Bound [4]: 0.19 ± 0.11

More lines, main results first:

Plasma Selectivity (equiv bound) [1]: 1.30 ± 0.15 equiv bound
Compound: O=Cc1cccc(-c2cc(Cl)cc(Cl)c2)c1 [Compound 39, 3′,5′-Dichloro-3-formylbiphenyl]
effect on TTR tetramer dissociation in 6.5 M urea (WT TTR tetramer [2]): overall reduction in the extent of tetramer dissociation

Plasma Selectivity (equiv bound) [1]: 0.07 ± 0.02 equiv bound
Compound: O=C(O)c1cc(-c2ccccc2F)ccc1O [Compound 24, 2′-Fluoro-4-hydroxybiphenyl-3-carboxylic acid]

Plasma Selectivity (equiv bound) [1]: 0.07 ± 0.02 equiv bound
Compound: O=C(O)c1ccc(-c2cc(F)c(O)c(F)c2)cc1 [Compound 29, 3′,5′-Difluoro-4′-hydroxybiphenyl-4-carboxylic acid]

Plasma Selectivity (equiv bound) [1]: 0.12 ± 0.02 equiv bound
Compound: O=C(O)c1cccc(-c2cc(Cl)c(O)c(Cl)c2)c1 [Compound 30, 3′,5′-Dichloro-4′-hydroxybiphenyl-3-carboxylic acid]

Equivalents Bound (Blood) (TTR in whole blood): 1.47
Equivalents Bound (Plasma) [4]: 1.23 ± 0.24
Compound: 2′,4′-Difluorobiphenyl-4-carboxylic acid [Compound 12]

Plasma Selectivity (equiv bound) [1]: 0.20 ± 0.05 equiv bound
Compound: O=C(O)c1ccc(-c2ccc(F)cc2F)cc1 [Compound 12, 2′,4′-Difluorobiphenyl-4-carboxylic acid]

Plasma Selectivity (equiv bound) [1]: 1.96 ± 0.11 equiv bound
Compound: O=Cc1ccccc1-c1cc(Cl)cc(Cl)c1 [Compound 41, 3′,5′-Dichloro-2-formylbiphenyl]
effect on TTR tetramer dissociation in 6.5 M urea (WT TTR tetramer [2]): overall reduction in the extent of tetramer dissociation

Equivalents Bound [4]: 0.62 ± 0.12
Compound: O=C(O)c1cc(-c2ccc(F)cc2F)ccc1O [diflunisal, reference compound]

Plasma Selectivity (equiv bound) [1]: 0.23 ± 0.00 equiv bound
Compound: O=C(O)c1cccc(-c2cc(F)cc(F)c2)c1 [Compound 17, 3′,5′-Difluorobiphenyl-3-carboxylic acid]

Equivalents Bound [4]: No Binding
Compound: 3′,5′-Difluorobiphenyl-3-ol [Compound 8]
protection of the tetramer from dissociation in 6 M urea by T·I and T·I2 (WT TTR tetramer [3]): did not protect the tetramer substantially from dissociation in urea

Equivalents Bound (Plasma) [4]: 1.86 ± 0.14
Compound: 2′-Fluorobiphenyl-4-carboxylic acid [Compound 16]

Equivalents Bound (Plasma) [4]: 1.63 ± 0.05
Compound: 3′,5′-Difluorobiphenyl-3-carboxylic acid [Compound 17]

Plasma Selectivity (equiv bound) [1]: none observed
Compound: O=C(O)c1cccc(-c2cc(F)c(O)c(F)c2)c1 [Compound 28, 3′,5′-Difluoro-4′-hydroxybiphenyl-3-carboxylic acid]

Plasma Selectivity (equiv bound) [1]: none observed
Compound: O=C(O)c1cccc(-c2ccccc2F)c1 [Compound 15, 2′-Fluorobiphenyl-3-carboxylic acid]

Equivalents Bound [4]: 0.18 ± 0.03
Compound: 2′,4′-Difluorobiphenyl-3-ol [Compound 2]

Equivalents Bound (Blood) (TTR in whole blood): 1.20
Equivalents Bound (Plasma) [4]: 1.12 ± 0.22
Plasma Selectivity (equiv bound) [1]: none observed
Compound: O=C(O)c1cccc(-c2ccc(F)cc2F)c1 [Compound 11, 2′,4′-Difluorobiphenyl-3-carboxylic acid]
inhibitor:TTR binding stoichiometry in human blood plasma [5]: displayed the highest binding stoichiometries

Equivalents Bound [4]: 1.50 ± 0.42
Compound: Oc1ccc(-c2ccc(F)cc2F)cc1 [Compound 3, 2′,4′-Difluorobiphenyl-4-ol]

Plasma Selectivity (equiv bound) [1]: 0.26 ± 0.04 equiv bound
Compound: O=C(O)c1ccc(-c2cc(Cl)c(O)c(Cl)c2)cc1 [Compound 31, 3′,5′-Dichloro-4′-hydroxybiphenyl-4-carboxylic acid]

Plasma Selectivity (equiv bound) [1]: 0.29 ± 0.12 equiv bound
Compound: O=C(O)c1cccc(-c2c(F)cccc2F)c1 [Compound 19, 2′,6′-Difluorobiphenyl-3-carboxylic acid]
